Test results from publication PMC2784146 (Nature, 2009).

How the values were obtained:
carbonic anhydrase II = conditions: ref WOMBAT (26); cited from earlier work
human 5-HT2A receptor = human 5-HT2A receptor (Homo sapiens, UniProt P28223); experiment: cell-based
σ1 receptor = conditions: read-out: Kd for σ1; cited from earlier work
hERG channel = conditions: cited from earlier work
5-HT1D receptor = 5-HT1D receptor (Homo sapiens, UniProt P28221); conditions: ref Supplementary Table 3; cited from earlier work
Histamine H4 receptor = Histamine H4 receptor (Homo sapiens, UniProt Q9H3N8); experiment: biochemical; format: binding
[1] = average; cited from earlier work
adrenergic α2 = conditions: ref Supplementary Table 3; cited from earlier work
μ Opioid receptor = μ Opioid receptor (Homo sapiens, UniProt P35372); experiment: biochemical; format: binding
α2A adrenergic receptor = biological target: T1, α2A adrenergic receptor (Homo sapiens, UniProt P08913); experiment: Radioligand competition binding, α2A
T1 sequence (P08913 1-465): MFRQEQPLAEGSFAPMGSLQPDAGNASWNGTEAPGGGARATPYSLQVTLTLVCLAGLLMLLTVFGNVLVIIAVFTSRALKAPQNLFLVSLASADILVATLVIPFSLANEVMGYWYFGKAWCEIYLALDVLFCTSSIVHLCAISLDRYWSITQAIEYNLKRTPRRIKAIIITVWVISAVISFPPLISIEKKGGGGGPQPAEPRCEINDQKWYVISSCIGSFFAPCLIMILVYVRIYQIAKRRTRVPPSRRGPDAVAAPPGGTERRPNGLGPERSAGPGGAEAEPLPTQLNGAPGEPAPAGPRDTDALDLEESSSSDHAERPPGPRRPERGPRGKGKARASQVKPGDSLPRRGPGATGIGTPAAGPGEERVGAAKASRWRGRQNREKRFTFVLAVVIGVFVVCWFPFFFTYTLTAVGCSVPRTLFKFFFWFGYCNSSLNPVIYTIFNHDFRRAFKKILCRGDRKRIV

Histamine H4 receptor, sequence (Q9H3N8 whole entry, species assumed): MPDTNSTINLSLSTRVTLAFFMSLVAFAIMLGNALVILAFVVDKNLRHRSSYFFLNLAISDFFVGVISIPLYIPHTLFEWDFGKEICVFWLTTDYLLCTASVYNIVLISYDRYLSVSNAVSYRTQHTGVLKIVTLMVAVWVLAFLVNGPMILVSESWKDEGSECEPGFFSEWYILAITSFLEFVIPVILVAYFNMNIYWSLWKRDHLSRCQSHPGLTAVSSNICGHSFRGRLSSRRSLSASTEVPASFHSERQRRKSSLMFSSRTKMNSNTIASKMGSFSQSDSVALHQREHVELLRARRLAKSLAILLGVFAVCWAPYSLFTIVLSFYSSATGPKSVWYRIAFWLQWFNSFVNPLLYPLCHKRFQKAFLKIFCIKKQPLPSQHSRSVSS
5-HT1D receptor, sequence (P28221 whole entry): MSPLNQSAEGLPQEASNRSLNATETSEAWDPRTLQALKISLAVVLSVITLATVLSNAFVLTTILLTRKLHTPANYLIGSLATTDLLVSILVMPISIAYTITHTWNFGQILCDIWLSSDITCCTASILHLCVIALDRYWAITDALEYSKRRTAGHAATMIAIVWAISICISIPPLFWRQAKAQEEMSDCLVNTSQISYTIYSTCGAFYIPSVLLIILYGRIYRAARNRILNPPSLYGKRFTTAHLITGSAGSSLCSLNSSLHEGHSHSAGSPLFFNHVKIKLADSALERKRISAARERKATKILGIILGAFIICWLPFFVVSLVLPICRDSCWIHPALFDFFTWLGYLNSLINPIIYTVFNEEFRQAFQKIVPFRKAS
μ Opioid receptor, sequence (P35372 whole entry, species assumed): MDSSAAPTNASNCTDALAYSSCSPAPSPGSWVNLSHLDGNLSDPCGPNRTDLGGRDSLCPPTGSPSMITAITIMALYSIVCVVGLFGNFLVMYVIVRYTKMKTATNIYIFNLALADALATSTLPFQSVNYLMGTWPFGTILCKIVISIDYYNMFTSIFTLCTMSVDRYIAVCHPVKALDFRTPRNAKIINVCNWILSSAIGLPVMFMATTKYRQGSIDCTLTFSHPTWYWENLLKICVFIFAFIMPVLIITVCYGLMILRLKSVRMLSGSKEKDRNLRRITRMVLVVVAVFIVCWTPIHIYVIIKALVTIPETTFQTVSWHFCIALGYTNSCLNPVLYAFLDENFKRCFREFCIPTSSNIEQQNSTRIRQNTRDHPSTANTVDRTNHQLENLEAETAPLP
human 5-HT2A receptor, sequence (P28223 whole entry): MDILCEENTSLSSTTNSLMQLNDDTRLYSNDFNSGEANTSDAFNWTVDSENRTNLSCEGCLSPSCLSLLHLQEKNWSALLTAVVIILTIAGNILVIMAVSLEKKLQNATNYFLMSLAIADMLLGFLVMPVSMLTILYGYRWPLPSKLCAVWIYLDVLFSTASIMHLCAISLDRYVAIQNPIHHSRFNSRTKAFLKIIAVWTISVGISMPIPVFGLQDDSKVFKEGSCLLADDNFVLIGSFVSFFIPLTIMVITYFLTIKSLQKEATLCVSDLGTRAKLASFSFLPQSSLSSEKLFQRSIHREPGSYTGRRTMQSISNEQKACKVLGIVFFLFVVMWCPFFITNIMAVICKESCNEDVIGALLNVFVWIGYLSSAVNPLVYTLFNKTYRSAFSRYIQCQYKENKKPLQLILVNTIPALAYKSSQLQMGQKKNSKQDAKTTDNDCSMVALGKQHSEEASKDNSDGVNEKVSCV

In the case of `CCN[C@H]1CN(CCCOC)S(=O)(=O)c2sc(S(N)(=O)=O)cc21` [Azopt, brinzolamide], the “binds carbonic anhydrase II at” value (carbonic anhydrase II) is listed as 3 nM.
For `CN(C)CCc1c[nH]c2ccccc12` [DMT, N,N-dimethyltryptamine], the EC50 (human 5-HT2A receptor) is listed as 0.118 ± 0.029 µM and the Kd (σ1 receptor) is listed as 14.8 µM.
For `O=c1[nH]c2ccccc2n1CCCN1CCC(n2c(=O)[nH]c3cc(Cl)ccc32)CC1` [Motilium], the IC50 (hERG channel) is listed as 5 µM.
For `CCCN1C[C@H](CSC)C[C@@H]2c3cccc4[nH]cc(c34)C[C@H]21` [Permax, pergolide], the “reported to bind the 5-HT1D receptor at” value (5-HT1D receptor) is given as 13 nM.
For `CC(C)Nc1cccnc1N1CCN(C(=O)c2cc3cc(NS(C)(=O)=O)ccc3[nH]2)CC1` [Rescriptor, Delavirdine], the Ki (Histamine H4 receptor) is given as 5.3 µM and the “steady-state plasma concentration Cmin” value [1] is given as 15 µM.
For `CCN(CC)C(=O)N[C@H]1C=C2c3cccc4[nH]cc(c34)C[C@H]2N(C)C1` [Revanil, lisuride], the “reported to bind adrenergic α2 at” value (adrenergic α2) is given as 0.055 nM.
Compound `CC(C(O)c1ccc(O)cc1)N1CCC(Cc2ccccc2)CC1` (stereo not shown) [Vadilex, Ifenprodil] has a Ki (μ Opioid receptor) of 1.4 µM.
With `COc1cc2c(cc1OC)C1CC(=O)C(CC(C)C)CN1CC2` (stereo not shown) [Xenazine] the Ki (α2A adrenergic receptor) was 0.96 µM.
